Patent US20090155270A1, “CASPASE INHIBITORS, […] 3 INHIBITORS, FOR THE TREATMENT OF INFLUENZA” (priority 2003, published 2009)
Residues, ends and D or L forms follow the SMILES beside them. *: point of attachment. Cbz = O=C(OCc1ccccc1)*; CH2F = FC*

Assays:
[1] = tested on: influenza A virus nucleoprotein (NP); format: cell-based
[2] = tested on: reconstituted RNP complexes (PB2, PB1, PA, NP); format: cell-based, influenza A virus
[3] = tested on: influenza virus ribonucleic protein complexes (RNP's); format: cell-based, influenza A virus
[4] = tested on: Raf/MEK/ERK signal pathway (ERK); format: cell-based, homo sapiens
[5] = tested on: influenza A virus strain fowl plague virus (FPV); format: cell-based
[6] = target: caspase-3 (Homo sapiens, UniProt P42574)
[7] = tested on: influenza A virus strain Bratislava/79 (fowl plague virus, FPV); format: cell-based
[8] = target: T1, caspase-3 (Canis lupus familiaris, UniProt Q8MKI5); format: cell-based
T1 construct: endogenous in cells; host or cells: MDCK cells infected with influenza A virus FPV
T1 sequence (Q8MKI5 29-175 limits assumed): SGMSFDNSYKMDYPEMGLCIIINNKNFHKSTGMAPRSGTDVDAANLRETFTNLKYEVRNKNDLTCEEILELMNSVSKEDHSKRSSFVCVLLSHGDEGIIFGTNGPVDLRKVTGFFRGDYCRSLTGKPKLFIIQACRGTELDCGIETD
T1 sequence (Q8MKI5 176-277 limits assumed): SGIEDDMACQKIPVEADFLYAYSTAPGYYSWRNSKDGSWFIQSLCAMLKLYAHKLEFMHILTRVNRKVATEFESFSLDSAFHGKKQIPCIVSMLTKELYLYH

[9] = tested on: early or late viral proteins (NS1, NP, M1); format: cell-based, influenza A virus
[10] = tested on: influenza A virus strain fowl plague virus (FPV); format: cell-based; remark: listed apart in the source
[11] = tested on: influenza A virus strain fowl plague virus (FPV); format: cell-based; remark: listed apart in the source

CN[C@@H]1C[C@H]2O[C@@](C)([C@@H]1OC)n1c3ccccc3c3c4c(c5c6ccccc6n2c5c31)C(=O)NC4 [staurosporine]
localization of the nucleoprotein after apoptosis induction [1]: distributed over the complete cell
localization of GFP and RNP complexes after apoptosis induction [2]: distributed over the complete cell

N#CC(=C(/N)Sc1ccccc1N)/C(C#N)=C(\N)Sc1ccccc1N [U0126]
migration of the RNP's out of the cell nucleus [3]: efficiently be inhibited
prevention of staurosporine-induced bleeding of GFP and RNP complexes out of the cell nucleus [2]: not
virus-induced activity of ERK [4]: efficiently inhibited
effect on the virus multiplication (titers of descendant viruses) [5]: again reduced
cleavage of the caspase substrate PARP [6]: did not lead to a modified cleavage of PARP

COC(=O)C[C@H](NC(=O)[C@H](C)NC(=O)[C@@H](NC(=O)OCc1ccccc1)C(C)C)C(=O)CF [Z-VAD-FMK] (Cbz-Val-Ala-Asp(OMe)-CH2F)
inhibition of the virus multiplication [7]: same efficiency

CCC(=C/[C@H](C)C/C=C/C(C)=C/[C@@H](C)C(=O)[C@@H](C)[C@H](O)[C@@H](C)C/C(C)=C/C(=O)O)/C=C/[C@@H]1OC(=O)C=C[C@@H]1C [leptomycin B]
prevention of staurosporine-induced bleeding of NP out of the cell nucleus [1]: not

COC(=O)CC[C@H](NC(=O)[C@H](CC(=O)OC)NC(=O)OCc1ccccc1)C(=O)N[C@H](C(=O)N[C@@H](CC(=O)OC)C(=O)CF)C(C)C [Z-DEVD-FMK]
effect on virus multiplication when present in the first two hours after infection and removed thereafter [7]: no significant effects
inhibition of virus multiplication when added 4 hours after infection [7]: continued to effectively inhibit virus multiplication
reduction in the influenza virus titers [7]: approx. 60%
caspase inhibition, measured by the cleavage of the caspase substrate PARP, versus virus titer inhibition [8]: precisely correlated
effect on virus protein expression [9]: no significant effect
migration of the RNP's out of the cell nucleus [3]: efficiently be inhibited
prevention of staurosporine-induced bleeding of NP out of the cell nucleus [1]: can be prevented
prevention of staurosporine-induced bleeding of GFP and RNP complexes out of the cell nucleus [2]: can be prevented
virus-induced activity of ERK [4]: substantially identical
effect on the virus multiplication (titers of descendant viruses) [5]: did not have any effect

CC(NC(=O)[C@H](Cc1ccccc1)NC(=O)OCc1ccccc1)C(=O)CF (some centres unmarked) [Z-FA-FMK]
effect on virus multiplication [7]: did not show any effect
migration of the RNP's out of the cell nucleus [3]: not

B1: procaspase-3 (protein, UniProt P42574 1-277, looked up)
pro-form: MENTENSVDSKSIKNLEPKIIHGSESMDSGISLDNSYKMDYPEMGLCIIINNKNFHKSTGMTSRSGTDVDAANLRETFRNLKYEVRNKNDLTREEIVELMRDVSKEDHSKRSSFVCVLLSHGEEGIIFGTNGPVDLKKITNFFRGDRCRSLTGKPKLFIIQACRGTELDCGIETDSGVDDDMACHKIPVEADFLYAYSTAPGYYSWRNSKDGSWFIQSLCAMLKQYADKLEFMHILTRVNRKVATEFESFSFDATFHAKKQIPCIVSMLTKELYFYH
modifications: pro-form
virus multiplication in transfected cells [10]: increased virus multiplication
increase in the titers of descendant viruses [11]: 30 fold
